Where two headings read alike, the source gives them in different places.
What was measured:
Assay type in all cases: cell-based
[1] = system: C. albicans wildtype and DNA repair mutants; experiment: Fungicidal killing, CFU assay; conditions: C. albicans rad50/rad50 and rad52/rad52, 3 hours of drug exposure
Procedure: Overnight yeast cultures were diluted into the indicated media and grown to an OD600 of 0.2, at which point the AFs were added. Colony forming units (CFU) were measured by plating six serial dilutions onto YPD agar plates.
(§1) Overnight yeast cultures were diluted into the indicated media and grown to an OD600 of 0.2, at which point the AFs were added. Colony forming units (CFU) were measured by plating six serial dilutions onto YPD agar plates. Cells treated with MCZ were washed before serial dilution to stop growth inhibition associated with high concentrations of MCZ. CFU were counted after three days of incubation on agar plates. When indicated, thiourea (Fluka) was added 30 min prior to the addition of AFs. HPF (10 μM) (Invitrogen) and Mito Tracker (1 μM) (Invitrogen) dyes were added to PBS-washed cells at the indicated time points and incubated for 30 min prior to flow cytometry measurements, which were taken on the FACSCalibur (Becton-Dickinson). All experiments described in this section were conducted in 0.5 ml of SDC in 24-well plates incubated at 900 rpm and 37° C. for C. albicans and 30° C. and 300 rpm for S. cerevisiae. TUNEL assays were conducted as previously described (Ribeiro et al., 2006) and are described in detail in the TUNEL section of the Experimental Procedures.

[2] = system: S. cerevisiae wildtype and deletion strains
S. cerevisiae = experiment: Mitochondrial activity by MitoTracker Red fluorescence
Procedure: It was next sought to assess the mitochondrial activity of AF-treated fungal cells. Yhe MitoTracker Red dye, which enters the mitochondrial matrix by utilizing the proton motive force and thus labels metabolically active mitochondria in viable cells was used (Arita et al., 2006; Tomas et al., 2011). Exponential phase S. cerevisiae were incubated in glucose-free synthetic complete (SC) media for 30 min and then switched to SC containing 2% glucose or non-fermentable acetate for 1.5 hours.
as §1

SMILES | susceptibility of DSBR mutants compared to wildtype [1] | additive resistance on deleting the remaining citrate synthases in the cit3 background ([2]; S. cerevisiae CIT1/CIT2 deletions in cit3 background) | CFU (24-well colony forming assay), AF susceptibility vs wildtype ([2]; S. cerevisiae PAB103, SDH2 deletion) | CFU (24-well colony forming assay), AF susceptibility vs wildtype ([2]; S. cerevisiae PAB106, FMS1 deletion) | CFU (24-well colony forming assay), AF susceptibility vs wildtype ([2]; S. cerevisiae PAB107, NDE1 deletion) | CFU (24-well colony forming assay), AF susceptibility vs wildtype ([2]; S. cerevisiae PAB112, MNE1 deletion) | CFU (24-well colony forming assay), AF susceptibility vs wildtype ([2]; S. cerevisiae PAB113, FUM1 deletion) | CFU (24-well colony forming assay), AF susceptibility vs wildtype ([2]; S. cerevisiae PAB114, TPK2 deletion) | CFU (24-well colony forming assay), AF susceptibility vs wildtype ([2]; S. cerevisiae PAB119, CIT2 deletion) | CFU (24-well colony forming assay), AF susceptibility vs wildtype ([2]; S. cerevisiae PAB121, SDH1 deletion) | CFU (24-well colony forming assay), AF susceptibility vs wildtype ([2]; S. cerevisiae PAB122, TPK3 deletion) | CFU (24-well colony forming assay), AF susceptibility vs wildtype ([2]; S. cerevisiae PAB124, TPK1 deletion) | CFU (24-well colony forming assay), AF susceptibility vs wildtype ([2]; S. cerevisiae PAB132, CIT3 deletion) | CFU (24-well colony forming assay), AF susceptibility vs wildtype ([2]; S. cerevisiae PAB135, NDI1 deletion) | CFU (24-well colony forming assay), AF susceptibility vs wildtype ([2]; S. cerevisiae PAB145, CIT1 deletion) | CFU (24-well colony forming assay), AF susceptibility vs wildtype ([2]; S. cerevisiae PAB168, RAS1 deletion) | CFU (24-well colony forming assay), AF susceptibility vs wildtype ([2]; S. cerevisiae PAB171, RAS2 deletion) | reduction of killing at 3 hours by thiourea ([2]; S. cerevisiae, 50 mM thiourea for 30 minutes prior to the addition of AF drugs) | increase of MitoTracker fluorescence (S. cerevisiae; drug added to glucose-incubated (SC, 2% glucose) S. cerevisiae) | MitoTracker fluorescence in acetate-incubated vs glucose-incubated cells (S. cerevisiae; S. cerevisiae, SC with non-fermentable acetate, 1.5 hours)
Cc1cc(C2CCCCC2)n(O)c(=O)c1 [CIC, cicloplrox olamine] | particularly susceptible | not observed | Resistant (″Resistant″ or ″Sensitive″ indicate at least a 5-fold CFU difference from wildtype at the final time point) | Normal | Resistant (″Resistant″ or ″Sensitive″ indicate at least a 5-fold CFU difference from wildtype at the final time point) | Resistant (″Resistant″ or ″Sensitive″ indicate at least a 5-fold CFU difference from wildtype at the final time point) | Resistant (″Resistant″ or ″Sensitive″ indicate at least a 5-fold CFU difference from wildtype at the final time point) | Normal | Resistant (″Resistant″ or ″Sensitive″ indicate at least a 5-fold CFU difference from wildtype at the final time point) | Resistant (″Resistant″ or ″Sensitive″ indicate at least a 5-fold CFU difference from wildtype at the final time point) | Resistant (″Resistant″ or ″Sensitive″ indicate at least a 5-fold CFU difference from wildtype at the final time point) | Resistant (″Resistant″ or ″Sensitive″ indicate at least a 5-fold CFU difference from wildtype at the final time point) | Resistant (″Resistant″ or ″Sensitive″ indicate at least a 5-fold CFU difference from wildtype at the final time point) | Resistant (″Resistant″ or ″Sensitive″ indicate at least a 5-fold CFU difference from wildtype at the final time point) | Resistant (″Resistant″ or ″Sensitive″ indicate at least a 5-fold CFU difference from wildtype at the final time point) | Resistant (″Resistant″ or ″Sensitive″ indicate at least a 5-fold CFU difference from wildtype at the final time point) | Resistant (″Resistant″ or ″Sensitive″ indicate at least a 5-fold CFU difference from wildtype at the final time point) | ~15 fold | 10 fold | 
CC(=O)O [acetate] |  |  |  |  |  |  |  |  |  |  |  |  |  |  |  |  |  |  |  | approximately 5 fold

— patent publication US20150366890A1, “COMPOSITIONS AND METHODS FOR TREATING FUNGAL INFECTIONS” (TRUSTEES OF BOSTON UNIVERSITY, priority 2013, published 2015)
